Reference: patent US7232659B1, “Multiplex analysis for high throughput discrimination of GPCR agonists and antagonists” (STC.UNM, priority 2003, dated 2007)
Residues, ends and D or L forms follow the SMILES beside them. *: point of attachment. For = O=C*

Tests used:
β2AR in membranes = settings: membrane binding assays (3); cited from earlier work
[1] = tested on: adenylyl cyclase activity via β2AR in membranes; settings: membranes (3); cited from earlier work
[2] = target: T1, β2AR-GFP with Gαsβ1γ2 on Ni beads (Homo sapiens, UniProt P07550); assay: ARG assembly assay on G protein coated beads, flow cytometry; type: biochemical; settings: for slope of GFP/bead versus β2AR-GFP concentration: dobutamine relative to salbutamol
T1 construct: expressed in transfected cells; host or cells: receptor fusion: U937 cells, solubilized membranes
Experimental: ARG Assembly Assay on G Protein Coated Beads—Coating of the Ni beads with heterotrimeric G proteins has been described before in detail (10). Briefly, 25 pmol of the desired α subunit and 25 pmol of hexahistidine-tagged β1γ2 were mixed with 2.5 μl of a 50% slurry of DCNi beads (2.5×10^5 beads/μl) and 190 μl of HPSM containing 0.1% dodecyl maltoside and 1 mM dithiothreitol, then kept in suspension by rocking at 4–7° C. for one hour. The beads were then centrifuged for 30 seconds at 1,500×gmax, the supernatant was removed, and the beads were resuspended in 50 μl of the buffer. This provided 25 aliquots of 24,000 G protein coated beads, for 25 ARG assembly assays (some beads were lost to surfaces). A ten microliter ARG assembly assay generally consisted of two microliters of solubilized receptor preparation, two microliters of desired ligand, four microliters of HPSM containing 0.1% dodecyl maltoside, and two microliters of G protein coated beads. Nonspecific fluorescence was defined in the presence of 0.1 mM GTPγS. These suspensions were mixed on an orbital mixer for 2 hours, brought to 200 μl with HPSM containing 0.1% dodecyl maltoside, transferred to a 12×75 mm tube, and immediately analyzed by flow cytometry for bead fluorescence. For kinetic data, tubes were removed from the cytometer after twenty seconds, 2 μl of 10^−2 M GTPγS was added and mixed, and the tubes were returned to the cytometer for measurement of the bead fluorescence. The cytometer data were converted to alphanumeric form and binned into one second intervals using the FACSQuery program (available free from Bruce Edwards), which provides a series of mean channel fluorescence (MCF) values in an Excel file.

[3] = target: T2, FPR-GFP (R^F) with Gαi3β1H6γ2 on DCNi beads (Homo sapiens, UniProt P21462); assay: Standard LRG assembly assay with FPR-GFP on G protein beads, flow cytometry; type: biochemical
T2 construct: host or cells: receptor fusion: transfected cells (U937 named for FPR), solubilized membranes; β1H6γ2: Sf9 insect cells
Experimental: Standard LRG Assembly Assay. […] Each mixture was mixed by pipetting to ensure a uniform starting suspension of the beads in 96 V-well plates (Costar), and then mixed at low speed on a vortex mixer at 7° for two hours. The 10 μl assays were individually brought to 200 μl with 0.1% dodecyl maltoside in buffer A in 12×75 mm tubes for flow cytometric measurement of fluorescence of the beads. LRG assembly was defined as the difference between fluorescence without GTPγS and that with GTPγS. All determinations were done in duplicate.

T1 sequence (P62873 2-340): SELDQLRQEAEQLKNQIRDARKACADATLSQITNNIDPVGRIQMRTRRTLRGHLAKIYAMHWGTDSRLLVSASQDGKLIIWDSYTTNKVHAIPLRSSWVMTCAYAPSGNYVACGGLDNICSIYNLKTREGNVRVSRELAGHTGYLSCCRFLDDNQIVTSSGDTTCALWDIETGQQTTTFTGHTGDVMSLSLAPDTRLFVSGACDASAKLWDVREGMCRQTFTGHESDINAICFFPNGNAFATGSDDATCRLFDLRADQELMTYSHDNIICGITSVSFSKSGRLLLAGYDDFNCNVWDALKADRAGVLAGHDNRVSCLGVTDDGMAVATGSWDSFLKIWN
T1 sequence (P07550 whole entry, the tested form may be a part): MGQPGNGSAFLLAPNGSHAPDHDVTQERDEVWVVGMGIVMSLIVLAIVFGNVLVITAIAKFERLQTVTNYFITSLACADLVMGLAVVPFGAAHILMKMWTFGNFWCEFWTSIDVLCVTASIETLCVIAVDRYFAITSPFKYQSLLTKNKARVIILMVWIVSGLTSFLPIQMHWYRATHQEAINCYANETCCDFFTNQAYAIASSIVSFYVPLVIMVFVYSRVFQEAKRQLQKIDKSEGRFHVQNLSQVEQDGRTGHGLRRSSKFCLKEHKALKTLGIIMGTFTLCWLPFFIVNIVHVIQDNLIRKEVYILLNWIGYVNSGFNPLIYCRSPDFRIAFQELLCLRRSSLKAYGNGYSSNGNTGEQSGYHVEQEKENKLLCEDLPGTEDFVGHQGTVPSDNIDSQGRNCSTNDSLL
T1 sequence (P59768 2-68, further chain): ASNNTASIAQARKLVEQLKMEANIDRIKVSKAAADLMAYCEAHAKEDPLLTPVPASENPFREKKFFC
T1 sequence (P63092 other isoform, or with tags, fused parts or gaps, further chain): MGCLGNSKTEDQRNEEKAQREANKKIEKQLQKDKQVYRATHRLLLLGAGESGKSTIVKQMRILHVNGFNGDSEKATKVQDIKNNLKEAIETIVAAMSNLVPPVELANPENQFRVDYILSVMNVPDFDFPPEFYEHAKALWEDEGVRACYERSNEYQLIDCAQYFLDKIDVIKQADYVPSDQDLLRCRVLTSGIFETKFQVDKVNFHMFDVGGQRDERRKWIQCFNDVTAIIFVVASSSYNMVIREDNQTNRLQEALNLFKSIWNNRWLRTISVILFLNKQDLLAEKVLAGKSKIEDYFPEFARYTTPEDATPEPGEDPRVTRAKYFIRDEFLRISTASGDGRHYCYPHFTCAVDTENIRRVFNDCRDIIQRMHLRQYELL
T2 sequence (P21462 whole entry, the tested form may be a part): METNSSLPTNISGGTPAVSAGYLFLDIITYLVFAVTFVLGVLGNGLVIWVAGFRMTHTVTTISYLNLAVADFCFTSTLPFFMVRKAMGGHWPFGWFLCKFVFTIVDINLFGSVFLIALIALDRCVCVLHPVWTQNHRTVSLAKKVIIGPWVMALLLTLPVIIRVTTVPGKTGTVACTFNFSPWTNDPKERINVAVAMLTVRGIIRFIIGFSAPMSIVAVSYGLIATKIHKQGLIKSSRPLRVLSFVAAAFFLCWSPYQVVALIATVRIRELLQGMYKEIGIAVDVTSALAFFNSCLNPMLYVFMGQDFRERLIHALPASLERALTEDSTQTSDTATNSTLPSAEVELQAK
T2 sequence (P08754 2-354 partner limits assumed): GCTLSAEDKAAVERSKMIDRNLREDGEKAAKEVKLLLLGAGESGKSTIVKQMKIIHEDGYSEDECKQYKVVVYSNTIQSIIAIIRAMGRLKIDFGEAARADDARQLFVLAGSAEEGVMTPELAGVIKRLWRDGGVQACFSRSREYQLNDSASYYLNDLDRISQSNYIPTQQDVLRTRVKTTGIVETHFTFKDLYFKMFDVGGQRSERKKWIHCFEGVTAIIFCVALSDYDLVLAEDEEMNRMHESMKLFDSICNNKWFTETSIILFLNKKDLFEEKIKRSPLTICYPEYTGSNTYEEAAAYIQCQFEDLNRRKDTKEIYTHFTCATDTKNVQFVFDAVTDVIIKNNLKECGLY
T2 sequence (P62873 2-340 partner limits assumed): as the sequence (P62873 2-340) above
T2 sequence (P59768 2-68 partner limits assumed): as the sequence (P59768 2-68, further chain) above

Row | Structure (SMILES) | percent ARG form (β2AR in membranes) | efficacy (adenylyl cyclase activity compared to isoproterenol) [1] | slope of GFP/bead versus β2AR-GFP concentration ([2]; saturating agonist) | further results
1 | CC(Cc1ccc(O)cc1)NCC(O)c1ccc(O)c(O)c1 (stereo not shown) [hydroxybenzylisoproterenol] | 93% | 110% | – | –
2 | Nc1nc2c(ncn2[C@@H]2O[C@H](COP(=O)(O)OP(=O)(O)OP(O)(O)=S)[C@@H](O)[C@H]2O)c(=O)[nH]1 [GTPγS, guanosine 5′-3-O-(thio)triphosphate] | – | – | – | fluorescence on G protein beads with GTPγS added ([2]; 40 nM β2AR-GFP, 1 mM isoproterenol, 0.1 mM GTPγS): about 10,000 β2AR-GFP/bead
3 | CNC[C@H](O)c1ccc(O)c(O)c1 [epinephrine] | – | – | indistinguishable from isoproterenol | –
4 | CSCC[C@H](NC=O)C(=O)N[C@@H](CC(C)C)C(=O)N[C@@H](Cc1ccccc1)C(=O)N[C@@H](Cc1ccccc1)C(=O)O [fMLFF] (For-MLFF-OH) | – | – | – | EC50 [3]: 27 nM; ratio of Kd (for LR) to EC50 (for LRG formation) [3]: 2.8
5 | NC[C@H](O)c1ccc(O)c(O)c1 [norepinephrine] | – | – | indistinguishable from isoproterenol | –
6 | CC(C)NCC(O)c1ccc(O)c(O)c1 (stereo not shown) [isoproterenol] | 80% | 100% | – | –
7 | CC(CCc1ccc(O)cc1)NCCc1ccc(O)c(O)c1 (stereo not shown) [dobutamine] | – | – | ⅔ | rate of ternary complex disassembly after GTPγS ([2]; 0.1 mM GTPγS): 0.09 s⁻¹; maximal ARG/bead level relative to the full agonist isoproterenol ([2]; dose-response, 20 nM β2AR-GFP): ten; time course of ARG assembly ([2]; saturating agonist, 40 nM β2AR-GFP): ≤ 1 h
8 | CC(C)(C)NCC(O)c1ccc(O)c(CO)c1 (stereo not shown) [salbutamol] | – | 20% | – | –
9 | CC(C)NCC(O)c1ccc(O)c(NS(C)(=O)=O)c1 (stereo not shown) [soterenol] | 58% | 8% | – | –
